Source: PubChem BioAssay (NCI)
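These data come from cells grown in 96-well plates and exposed to compound for 48 hours at five concentrations. TGI: total growth inhibition.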

How the values were obtained:
Experiment in all cases: growth of human tumour cells (NCI), 48 h
786-0 renal = tested on: 786-0 renal
A498 renal = tested on: A498 renal
A549 NSCLC = tested on: A549 NSCLC
ACHN renal = tested on: ACHN renal
BT-549 breast = tested on: BT-549 breast
CAKI-1 renal = tested on: CAKI-1 renal
CCRF-CEM leukemia = tested on: CCRF-CEM leukemia
COLO 205 colon = tested on: COLO 205 colon
DU-145 prostate = tested on: DU-145 prostate
HCC-2998 colon = tested on: HCC-2998 colon
HCT-116 colon = tested on: HCT-116 colon
HCT-15 colon = tested on: HCT-15 colon
HL-60(TB) leukemia = tested on: HL-60(TB) leukemia
HOP-92 NSCLC = tested on: HOP-92 NSCLC
HS 578T breast = tested on: HS 578T breast
HT29 colon = tested on: HT29 colon
K-562 leukemia = tested on: K-562 leukemia
KM12 colon = tested on: KM12 colon
LOX IMVI melanoma = tested on: LOX IMVI melanoma
MALME-3M melanoma = tested on: MALME-3M melanoma
MCF7 breast = tested on: MCF7 breast
MDA-MB-231 breast = tested on: MDA-MB-231 breast
MDA-MB-435 = tested on: MDA-MB-435
MDA-N = tested on: MDA-N
NCI-H226 lung = tested on: NCI-H226 lung
NCI-H23 lung = tested on: NCI-H23 lung
NCI-H460 lung = tested on: NCI-H460 lung
NCI-H522 lung = tested on: NCI-H522 lung
NCI/ADR-RES ovarian = tested on: NCI/ADR-RES ovarian
OVCAR-4 ovarian = tested on: OVCAR-4 ovarian
OVCAR-8 ovarian = tested on: OVCAR-8 ovarian
PC-3 prostate = tested on: PC-3 prostate
RPMI-8226 leukemia = tested on: RPMI-8226 leukemia
SF-268 CNS = tested on: SF-268 CNS
SF-295 CNS = tested on: SF-295 CNS
SF-539 CNS = tested on: SF-539 CNS
SK-MEL-2 melanoma = tested on: SK-MEL-2 melanoma
SK-MEL-28 melanoma = tested on: SK-MEL-28 melanoma
SK-MEL-5 melanoma = tested on: SK-MEL-5 melanoma
SK-OV-3 ovarian = tested on: SK-OV-3 ovarian
SN12C renal = tested on: SN12C renal
SNB-19 CNS = tested on: SNB-19 CNS
SNB-75 CNS = tested on: SNB-75 CNS
SR leukemia = tested on: SR leukemia
SW-620 colon = tested on: SW-620 colon
T-47D breast = tested on: T-47D breast
TK-10 renal = tested on: TK-10 renal
U251 CNS = tested on: U251 CNS
UACC-257 melanoma = tested on: UACC-257 melanoma
UACC-62 melanoma = tested on: UACC-62 melanoma
UO-31 renal = tested on: UO-31 renal
EKVX NSCLC = tested on: EKVX NSCLC
HOP-62 NSCLC = tested on: HOP-62 NSCLC
IGROV1 ovarian = tested on: IGROV1 ovarian
M14 melanoma = tested on: M14 melanoma
MOLT-4 leukemia = tested on: MOLT-4 leukemia
OVCAR-3 ovarian = tested on: OVCAR-3 ovarian
OVCAR-5 ovarian = tested on: OVCAR-5 ovarian

## OC1CC2CCCN(CCc3c1[nH]c1ccccc31)C2 (configuration not stated)
786-0 renal
  TGI: > 100 µM
A498 renal
  TGI: > 100 µM
A549 NSCLC
  TGI: > 100 µM
ACHN renal
  TGI: > 100 µM
BT-549 breast
  TGI: > 100 µM
CAKI-1 renal
  TGI: > 100 µM
CCRF-CEM leukemia
  TGI: > 100 µM
COLO 205 colon
  TGI: > 100 µM
DU-145 prostate
  TGI: > 100 µM
HCC-2998 colon
  TGI: > 100 µM
HCT-116 colon
  TGI: > 100 µM
HCT-15 colon
  TGI: > 100 µM
HL-60(TB) leukemia
  TGI: > 100 µM
HOP-92 NSCLC
  TGI: > 100 µM
HS 578T breast
  TGI: > 100 µM
HT29 colon
  TGI: > 100 µM
K-562 leukemia
  TGI: > 100 µM
KM12 colon
  TGI: > 100 µM
LOX IMVI melanoma
  TGI: > 100 µM
MALME-3M melanoma
  TGI: > 100 µM
MCF7 breast
  TGI: > 100 µM
MDA-MB-231 breast
  TGI: > 100 µM
MDA-MB-435
  TGI: > 100 µM
MDA-N
  TGI: > 100 µM
NCI-H226 lung
  TGI: > 100 µM
NCI-H23 lung
  TGI: > 100 µM
NCI-H460 lung
  TGI: > 100 µM
NCI-H522 lung
  TGI: > 100 µM
NCI/ADR-RES ovarian
  TGI: > 100 µM
OVCAR-4 ovarian
  TGI: > 100 µM
OVCAR-8 ovarian
  TGI: > 100 µM
PC-3 prostate
  TGI: > 100 µM
RPMI-8226 leukemia
  TGI: > 100 µM
SF-268 CNS
  TGI: > 100 µM
SF-295 CNS
  TGI: > 100 µM
SF-539 CNS
  TGI: > 100 µM
SK-MEL-2 melanoma
  TGI: > 100 µM
SK-MEL-28 melanoma
  TGI: > 100 µM
SK-MEL-5 melanoma
  TGI: > 100 µM
SK-OV-3 ovarian
  TGI: > 100 µM
SN12C renal
  TGI: > 100 µM
SNB-19 CNS
  TGI: > 100 µM
SNB-75 CNS
  TGI: > 100 µM
SR leukemia
  TGI: > 100 µM
SW-620 colon
  TGI: > 100 µM
T-47D breast
  TGI: > 100 µM
TK-10 renal
  TGI: > 100 µM
U251 CNS
  TGI: > 100 µM
UACC-257 melanoma
  TGI: > 100 µM
UACC-62 melanoma
  TGI: > 100 µM
UO-31 renal
  TGI: > 100 µM

## CN(C)CCCN1c2ccccc2CCc2cccc([N+](=O)[O-])c21
786-0 renal
  TGI: 28.6 µM
A498 renal
  TGI: 37.2 µM
A549 NSCLC
  TGI: > 100 µM
ACHN renal
  TGI: 53.6 µM
BT-549 breast
  TGI: 61 µM
CAKI-1 renal
  TGI: 48.4 µM
CCRF-CEM leukemia
  TGI: 14.7 µM
COLO 205 colon
  TGI: 33.9 µM
DU-145 prostate
  TGI: 32.3 µM
EKVX NSCLC
  TGI: > 100 µM
HCC-2998 colon
  TGI: 31.5 µM
HCT-116 colon
  TGI: 28.9 µM
HCT-15 colon
  TGI: 29.6 µM
HL-60(TB) leukemia
  TGI: 30.1 µM
HOP-62 NSCLC
  TGI: 30 µM
HOP-92 NSCLC
  TGI: 45.5 µM
HS 578T breast
  TGI: 70.5 µM
HT29 colon
  TGI: 29.7 µM
IGROV1 ovarian
  TGI: 32.3 µM
K-562 leukemia
  TGI: 29.1 µM
KM12 colon
  TGI: 30.9 µM
LOX IMVI melanoma
  TGI: 30.2 µM
M14 melanoma
  TGI: 29.2 µM
MALME-3M melanoma
  TGI: 32.5 µM
MCF7 breast
  TGI: 30.7 µM
MDA-MB-231 breast
  TGI: 47.6 µM
MDA-MB-435
  TGI: 30.3 µM
MDA-N
  TGI: 29.7 µM
MOLT-4 leukemia
  TGI: 29.8 µM
NCI-H226 lung
  TGI: 69.5 µM
NCI-H23 lung
  TGI: > 100 µM
NCI-H460 lung
  TGI: 32.1 µM
NCI-H522 lung
  TGI: 30.6 µM
NCI/ADR-RES ovarian
  TGI: 32.9 µM
OVCAR-3 ovarian
  TGI: 29.8 µM
OVCAR-4 ovarian
  TGI: 45.2 µM
OVCAR-5 ovarian
  TGI: > 100 µM
OVCAR-8 ovarian
  TGI: 29.3 µM
PC-3 prostate
  TGI: 34.5 µM
RPMI-8226 leukemia
  TGI: 23.8 µM
SF-268 CNS
  TGI: 64.5 µM
SF-295 CNS
  TGI: 30.1 µM
SF-539 CNS
  TGI: 31.6 µM
SK-MEL-2 melanoma
  TGI: 65.6 µM
SK-MEL-28 melanoma
  TGI: 26.1 µM
SK-MEL-5 melanoma
  TGI: 30 µM
SK-OV-3 ovarian
  TGI: 85.9 µM
SN12C renal
  TGI: 52.9 µM
SNB-19 CNS
  TGI: > 100 µM
SNB-75 CNS
  TGI: 24.4 µM
SR leukemia
  TGI: 28.5 µM
SW-620 colon
  TGI: 36 µM
T-47D breast
  TGI: 27.8 µM
TK-10 renal
  TGI: 37.2 µM
U251 CNS
  TGI: 32.9 µM
UACC-257 melanoma
  TGI: 34.7 µM
UACC-62 melanoma
  TGI: 36.2 µM
UO-31 renal
  TGI: 41.7 µM

## COc1ccc(P2(=S)Oc3ccc(C(c4ccccc4)(c4ccccc4)c4ccccc4)cc3O2)cc1 (configuration not stated)
786-0 renal
  TGI: 32.2 µM
A498 renal
  TGI: 31.8 µM
A549 NSCLC
  TGI: 30.7 µM
ACHN renal
  TGI: 30.5 µM
BT-549 breast
  TGI: 41.3 µM
CAKI-1 renal
  TGI: 33.9 µM
CCRF-CEM leukemia
  TGI: 49 µM
COLO 205 colon
  TGI: 34.5 µM
DU-145 prostate
  TGI: 35.1 µM
EKVX NSCLC
  TGI: 34.6 µM
HCC-2998 colon
  TGI: 30.6 µM
HCT-116 colon
  TGI: 32 µM
HCT-15 colon
  TGI: 34.8 µM
HL-60(TB) leukemia
  TGI: 32.1 µM
HOP-62 NSCLC
  TGI: 41.5 µM
HOP-92 NSCLC
  TGI: 32.4 µM
HS 578T breast
  TGI: 41 µM
HT29 colon
  TGI: 33.4 µM
IGROV1 ovarian
  TGI: 32.1 µM
K-562 leukemia
  TGI: 33.8 µM
KM12 colon
  TGI: 28.5 µM
LOX IMVI melanoma
  TGI: 28 µM
M14 melanoma
  TGI: 27.3 µM
MALME-3M melanoma
  TGI: 34.8 µM
MCF7 breast
  TGI: 34.9 µM
MDA-MB-231 breast
  TGI: 38.9 µM
MDA-MB-435
  TGI: 30.1 µM
MDA-N
  TGI: 32.7 µM
MOLT-4 leukemia
  TGI: 41.7 µM
NCI-H226 lung
  TGI: 31.6 µM
NCI-H23 lung
  TGI: 31.7 µM
NCI-H460 lung
  TGI: 34.8 µM
NCI-H522 lung
  TGI: 31.9 µM
NCI/ADR-RES ovarian
  TGI: 39.5 µM
OVCAR-3 ovarian
  TGI: 31 µM
OVCAR-4 ovarian
  TGI: 25.9 µM
OVCAR-5 ovarian
  TGI: 33.6 µM
OVCAR-8 ovarian
  TGI: 29.8 µM
PC-3 prostate
  TGI: 27.1 µM
RPMI-8226 leukemia
  TGI: 48.1 µM
SF-268 CNS
  TGI: 32.2 µM
SF-295 CNS
  TGI: 33.5 µM
SF-539 CNS
  TGI: 34.4 µM
SK-MEL-2 melanoma
  TGI: 35.3 µM
SK-MEL-28 melanoma
  TGI: 34.3 µM
SK-MEL-5 melanoma
  TGI: 36.2 µM
SK-OV-3 ovarian
  TGI: 37.5 µM
SN12C renal
  TGI: 31.7 µM
SNB-19 CNS
  TGI: 29.8 µM
SNB-75 CNS
  TGI: 26.8 µM
SR leukemia
  TGI: 47.5 µM
SW-620 colon
  TGI: 34.6 µM
T-47D breast
  TGI: 28 µM
TK-10 renal
  TGI: 33.4 µM
U251 CNS
  TGI: 31.9 µM
UACC-257 melanoma
  TGI: 34.2 µM
UACC-62 melanoma
  TGI: 26.2 µM
UO-31 renal
  TGI: 30.8 µM
